The values below are quoted from earlier work in patent US20140161876A1, “LIPOSOME-CONTAINING PREPARATION UTILIZING DISSOLUTION AID, AND METHOD FOR PRODUCING SAME” (KONICA MINOLTA, INC., priority 2011, published 2014).

The conditions of the data set: drug encapsulated, Tables 3 and 4.

≈ marks a conversion by molar mass, not a printed value.

Consider `COc1cc([C@@H]2c3cc4c(cc3[C@@H](O[C@@H]3O[C@@H]5CO[C@@H](C)O[C@H]5[C@H](O)[C@H]3O)[C@H]3COC(=O)[C@H]23)OCO4)cc(OC)c1O` [etoposide], for which the Solubility in water is given as 0.5 mg/mL (≈ 0.85 mM).
On to `Nc1nc(=O)c2c([nH]1)NC[C@H](CNc1ccc(C(=O)N[C@@H](CCC(=O)O)C(=O)O)cc1)N2C=O` [levofolinate], for which the Solubility in water is 20 mg/mL (≈ 42.2 mM).
